Columns and labels:
GSK3 [1] = biological target: T1, GSK3 (Rattus norvegicus, UniProt P18266); assay: phosphorylation of GSK3 in brains of healthy Wistar rats intracranially injected with tungstate; format: in vivo; details: intracranial 0.1 mM tungstate vs saline, FIG. 2A
T1 construct: Western blot analysis of Ser-9 phosphorylation of GSK3 in rat brain extracts; from tissue; host or cells: rat brain (Wistar rats: healthy or STZ-diabetic)
Procedure: (§1) In FIG. 2 the effect of tungstate (W) on the phosphorylation of tau in brains from healthy and insulin-resistant rats is shown. A) Western blot analysis of the phosphorylation of GSK3 (left) and tau (right) from brain extracts of healthy rats intracranially injected with saline (−) or 0.1 mM tungstate (+). Phosphorylation was measured with antibodies against Ser-9 phosphorylated GSK3-β (pS9), and tau phosphorylated at threonine 231 (AT180) or unphosphorylated at serines 198, 199 and 202 (tau-1). The total amount of GSK3 and tau was determined through the interaction with antibodies raised against GSK3 and against tau (7.51), respectively. […] Phosphorylation was measured using the antibody that reacts with Ser-9 phosphorylated GSK3-β (pS9-GSK3-β) or with the tau-1 and AT180 antibodies. The total amounts of GSK3 and tau were determined as in A. C) Insulin-resistant rats were injected intracranially with saline (−) or 0.1 mM tungstate (+), their brains were then isolated and homogenised, and Western blots of the brain proteins were performed with the tau-1, and AT180 antibodies. The total amount of tau protein was determined using the 7.51 antibody. […]
(§2) The analysis of the degree of the phosphorylation of tau and GSK3 was performed by Western blot with the antibodies mentioned above. […] The protein concentration was determined using the BCA protein assay (Pierce, Rockford, Ill.). […]

GSK3-β [2] = biological target: T2, GSK3-β (Homo sapiens, UniProt P49841); assay: Ser-9 phosphorylation of GSK3-β in SH-SY5Y neuroblastoma cells (Western blot); format: cell-based; details: 1 mM sodium tungstate, 10 minutes, vs vehicle, FIG. 1A
T2 construct: endogenous in cells; host or cells: SH-SY5Y human neuroblastoma cells (ECACC 94030304)
T2 sequence (P49841 whole entry): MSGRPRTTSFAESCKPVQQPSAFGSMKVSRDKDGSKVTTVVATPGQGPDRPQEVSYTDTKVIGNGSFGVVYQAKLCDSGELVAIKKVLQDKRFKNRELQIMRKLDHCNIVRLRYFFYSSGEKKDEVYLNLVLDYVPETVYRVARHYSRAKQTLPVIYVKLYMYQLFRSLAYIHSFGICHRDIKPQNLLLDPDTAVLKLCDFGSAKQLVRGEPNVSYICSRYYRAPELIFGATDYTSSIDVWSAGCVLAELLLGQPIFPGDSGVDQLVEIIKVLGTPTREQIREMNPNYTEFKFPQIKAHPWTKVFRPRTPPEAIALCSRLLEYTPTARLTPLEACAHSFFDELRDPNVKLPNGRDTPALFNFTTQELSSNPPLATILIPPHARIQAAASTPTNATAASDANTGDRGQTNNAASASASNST
Procedure: (§3) In FIG. 1 the effect of tungstate (W) on GSK3-β and tau phosphorylation on SH-SY5Y neuroblastoma cells is shown. The data correspond to the mean values and the error bars represent the standard deviation of three independent experiments. A) SH-SY5Y neuroblastoma cells were incubated for 10 minutes in the presence (+) or absence (−) of 1 mM sodium tungstate and their protein extracts were then probed by Western blot with an antibody that recognizes GSK3-β phosphorylated at Ser-9 and total GSK3-β. GSK3-β phosphorylation on Ser-9 causes its inactivation (D. A: Cross et al., Nature, vol. 378, pp. 785-789). […] B) SH-SY5Y cells were incubated with increasing concentrations of tungstate and the degree of tau phosphorylation was determined by Western blot with the tau-1 antibody, which recognizes tau when the serines 198, 199 or 202 are in unphosphorylated form. […] C) SH-SY5Y cells were incubated for 10 minutes in the presence (+) or absence (−) of 1 mM sodium tungstate (W) and the degree of tau phosphorylation was determined by Western blot with the AT180 antibody, which recognizes tau when threonine 231 is in phosphorylated form. […] The total amount of tau protein was determined using the 7.51 antibody.
(§4) The analysis of the degree of the phosphorylation of tau and GSK3 was performed by Western blot with the antibodies mentioned above. […]

GSK3 [3] = biological target: T1, GSK3; assay: Ser-9 phosphorylation of GSK3 in brain of healthy rats intraperitoneally injected with tungstate; format: in vivo; details: tungstate 50 mg/kg intraperitoneally vs saline, FIG. 3A
Procedure: (§5) In FIG. 3 the effect of tungstate (W) on the phosphorylation of tau from brains obtained from STZ-diabetic rats is shown. A) Western blot analysis of Ser-9 phosphorylation of GSK3 in rat brain extracts from control healthy rats intraperitoneally injected with saline (Ctrl) or tungstate (W) (50 mg/kg). […] B) as in A), STZ-diabetic rats intraperitoneally injected with 50 or 75 mg/kg of tungstate. C) Western blot analysis of the phosphorylation of tau at the site recognized by the tau-1 antibody in brain extracts from control healthy rats intraperitoneally injected with saline (Ctrl) or tungstate (W) (50 mg/kg). […] D) as in C), STZ-diabetic rats intraperitoneally injected with 50 or 75 mg/kg of tungstate. The data correspond to mean values and the error bars represent the standard deviation of three to five independent experiments.
as §2

[4] = cited from earlier work
GSK3-β [5] = biological target: T3, GSK3-β (Rattus norvegicus, UniProt P18266); assay: Ser-9 phosphorylation of GSK3-β in brain of STZ-diabetic rats intraperitoneally injected with tungstate; format: in vivo; details: tungstate 50 or 75 mg/kg intraperitoneally, FIG. 3B
T3 construct: Western blot analysis of Ser-9 phosphorylation of GSK3 in rat brain extracts; from tissue; host or cells: rat brain (Wistar rats: healthy or STZ-diabetic)
T3 sequence (P18266 whole entry): as the sequence (P49841 whole entry) above, with V240M, T390P, T392A, A400T, T402A counted along it
Procedure: as §5, §2

tau [6] = assay: tau phosphorylation (tau-1 site) in brain of healthy rats intraperitoneally injected with tungstate; format: in vivo, rat; details: tungstate 50 mg/kg intraperitoneally vs saline, FIG. 3C
Procedure: as §5, §2

tau [7] = assay: tau phosphorylation (tau-1 site) in brain of STZ-diabetic rats intraperitoneally injected with tungstate; format: in vivo, rat; details: tungstate 50 or 75 mg/kg intraperitoneally, FIG. 3D
Procedure: as §5, §2

tau [8] = assay: phosphorylation of tau in brains of healthy Wistar rats intracranially injected with tungstate; format: in vivo, rat; details: intracranial 0.1 mM tungstate vs saline, FIG. 2A
Procedure: as §1, §2

tau [9] = assay: phosphorylation of tau in brains of insulin-resistant (high fat diet) rats injected intraventricularly with tungstate; format: in vivo, rat; details: 5 μl of 110 nM sodium tungstate intraventricularly (FIG. 2 legend: 0.1 mM), 24 hours, cortex, FIG. 2C, dihydrate
Procedure: In FIG. 2 the effect of tungstate (W) on the phosphorylation of tau in brains from healthy and insulin-resistant rats is shown. A) Western blot analysis of the phosphorylation of GSK3 (left) and tau (right) from brain extracts of healthy rats intracranially injected with saline (−) or 0.1 mM tungstate (+). Phosphorylation was measured with antibodies against Ser-9 phosphorylated GSK3-β (pS9), and tau phosphorylated at threonine 231 (AT180) or unphosphorylated at serines 198, 199 and 202 (tau-1). The total amount of GSK3 and tau was determined through the interaction with antibodies raised against GSK3 and against tau (7.51), respectively. B) Western blot analysis of the phosphorylation in brain of GSK3-β (left) and tau (right) in control (Ctrl) and insulin-resistant (IR) rats. Phosphorylation was measured using the antibody that reacts with Ser-9 phosphorylated GSK3-β (pS9-GSK3-β) or with the tau-1 and AT180 antibodies. The total amounts of GSK3 and tau were determined as in A. C) Insulin-resistant rats were injected intracranially with saline (−) or 0.1 mM tungstate (+), their brains were then isolated and homogenised, and Western blots of the brain proteins were performed with the tau-1, and AT180 antibodies. The total amount of tau protein was determined using the 7.51 antibody. A decrease in the interaction with AT180 and an increase for that of tau-1 were observed
The analysis of the degree of the phosphorylation of tau and GSK3 was performed by Western blot with the antibodies mentioned above. Cells were homogenized at 4° C. in 50 mM 4-(2-hydroxyethyl)piperazine-1-ethanesulfonic acid (HEPES), pH 7.4, 10 mM ethylenediaminetetraacetic acid (EDTA), 0.1% 4-(1,1,3,3-tetramethylbutyl)phenyl-polyethylene glycol (triton X-100), 20 mM NaF, 0.1 mM sodium orthovanadate, 1 mM phenylmethanesulphonylfluoride, 10 μg/ml Isovaleryl-Val-Val-4-amino-3-hydroxy-6-methylheptanoyl-Ala-4-amino-3-hydroxy-6-methylheptanoic Acid (Pepstatin A); and 10 μg/ml aprotinin. The cell lysates were centrifuged at 10,000 g for 30 min at 4° C. and then heated at 100° C. for 5 min in electrophoresis sample buffer. The protein concentration was determined using the BCA protein assay (Pierce, Rockford, Ill.). Proteins were fractionated by sodium dodecylsulfate-polyacrylamide gel electrophoresis (SDS-PAGE) on 10% gels and transferred to nitrocellulose membranes (Schleicher & Schuell Bioscience, Dassel, Germany). After blocking non-specific protein binding to the membranes with 0.05% polyethylene glycol sorbitan monolaurate (Tween 20) and 5% non-fat dry milk in phosphate buffered saline (PBS), the membranes were incubated overnight with the primary antibodies in blocking buffer at 4° C. […]

tau [10] = assay: tau phosphorylation in SH-SY5Y neuroblastoma cells (Western blot, tau-1 and AT-180 antibodies); format: cell-based, Human
Procedure: as §3, §4

T1 sequence (P18266 whole entry): as the sequence (P49841 whole entry) above, with V240M, T390P, T392A, A400T, T402A counted along it

phosphorylation of GSK3 (Ser-9) in brain (GSK3 [1]): did not observe significant changes | Ser-9 phosphorylation of GSK3-β (ratio GSK3-β-pS9 / total GSK3-β) (GSK3-β [2]): significantly increased | phosphorylation of GSK3 at Ser-9 in brain (pS9-GSK3 / GSK3-β) (GSK3 [3]): no changes | Ser-9 phosphorylation of GSK3-β in brain (pS9-GSK3 / GSK3-β) (GSK3-β [5]): increased
Compound: O.O.[Na+].[Na+].[O]=[W](=[O])([O-])[O-] [sodium tungstate, Sodium tungstate dihydrate]
solubility in water [4]: easily dissolved | tau phosphorylation at the site recognized by the tau-1 antibody in brain (tau-1 / 7.51) (tau [6]): no changes | tau phosphorylation at the site recognized by the tau-1 antibody in brain (tau-1 / 7.51) (tau [7]): decreased | phosphorylation of tau (AT180, tau-1) in brain (tau [8]): did not observe significant changes | amount of tau protein recognized by the tau-1 antibody in brain (tau [9]; listed as Tungstate): increased | phosphorylation of tau at the epitope recognized by the AT180 antibody in brain (tau [9]; listed as Tungstate): decreased | amount of tau protein recognized by the tau-1 antibody in brain (tau [9]; listed as tungstate): increase | phosphorylation of tau at the epitope recognized by the AT180 antibody in brain (tau [9]; listed as tungstate): decrease | phosphorylation of the tau epitope recognized by AT-180 (threonine 231; ratio AT180 / 7.51) (tau [10]; 1 mM sodium tungstate, 10 minutes, FIG. 1C): decrease | immunoreactivity with the tau-1 antibody (tau unphosphorylated at serines 198, 199 or 202; ratio tau1 / 7.51) (tau [10]; increasing concentrations of tungstate, FIG. 1B): significant increase

— patent US20080206356A1, “Pharmaceutical Compositions for the Treatment of Neurodegenerative Disorders” (UNIVERSIDAD DE BARCELONA, priority 2005, published 2008)
